We go through two molecules from publication PMC3711124 (Biochemistry, 2008).

No end group written: not given here.

The nature of data set [1]: Circular dichroism of E5TM in DPC micelles. It counts as physicochemical. As to conditions: CD, 5°C-95°C in 10°C increments, 15 mM DPC, pH 7.5, 114 μM peptide. (In general: Circular dichroism is widely used to follow secondary structure.)
The data set “AUC” concerns the molecule itself. Description: AUC.

“Ac-KKKFLGLVAAMQLLLLLFLLLFFLVYWDHK [E5TM]”: the “thermal stability of α-helical structure” value in data set [1] is “Only a small decrease in α-helical structure was observed”.
With KKKFLGLVAAMQLLLLLFLLLFFLVYWDHK (also: end-caps on C- and N-termini, not given here) [E5TM peptide (transmembrane domain of the bovine papillomavirus E5 protein, residues F9-H34, with fl], the “stoichiometry N” value in the data set “AUC” turned out to be 2.

The stoichiometry N is a count of units in the complex or per binding partner.
